According to ChEMBL document CHEMBL3286278, “Antifungal and cytotoxic 2-acylcyclohexane-1,3-diones from Peperomia alata and P. trineura” (J Nat Prod, 2014):

Columns and labels:
[1] = tested on: Cladosporium cladosporioides; experiment: Antifungal activity against Cladosporium cladosporioides after 48 hrs; format: functional
[2] = tested on: Cladosporium sphaerospermum; experiment: Antifungal activity against Cladosporium sphaerospermum after 48 hrs; format: functional
K562 = experiment: Cytotoxicity against human K562 cells after 48 hrs by MTT assay; format: functional, cell-based; conditions: K562, 48 h
[3] = Cytotoxicity against human NALM6 cells after 48 hrs by MTT assay; format: functional, cell-based; conditions: NALM-6, 48 h

Compound | Activity [1] [µg] | Activity [2] [µg] | IC50 (K562) [µM] | IC50 [3] [µM]
O=C(CC/C=C/c1ccccc1)C1=C(O)CCCC1=O | 0.25 | 0.25 | – | –
NYSTATIN | 1 | 1 | – | –
Clc1ccc(COC(Cn2ccnc2)c2ccc(Cl)cc2Cl)c(Cl)c1 (stereo not given) [MICONAZOLE] | 1 | 1 | – | –
CCCCC/C=C\CCCCCCCCC(=O)C1=C(O)CCCC1=O | 10 | 25 | – | –
O=C(CCCCCCCCCCCCCCCCc1ccc2c(c1)OCO2)C1=C(O)CCCC1=O | 5 | 5 | – | –
O=C(CCCCCCCC/C=C/c1ccccc1)C1=C(O)CCCC1=O | 5 | 25 | – | –
O=C1CCCC(O)=C1C(=O)CCc1ccc2c(c1)OCO2 | 0.5 | 0.5 | – | –
CCCCC/C=C\CCCCCCCCC(=O)C1=C(O)CC[C@@H](O)C1=O | 1 | 10 | 26 | 14.3
O=C(CCCCCCCCCCCCCCc1ccc2c(c1)OCO2)C1=C(O)CCCC1=O | 5 | 5 | – | –
